Like-named read-outs stand apart in the source and are kept apart here.
How the values were obtained:
Conditions in all cases: 10 mM MgCl2, 100 mM Tris pH 8.0, 25 °C
PcIBMS1 [1] = test system: PcIBMS1
PcIBMS1 [2] = assay: DTNB end-point spectrophotometric assay; format: biochemical, Pogostemon cablin
PcIPMS1 [3] = assay: DTNB end-point spectrophotometric assay; format: biochemical, Pogostemon cablin
PcIPMS1 [4] = test system: PcIPMS1

## CC(C)C(=O)C(=O)O [2-oxoisovalerate]
PcIBMS1 [1]; 1 mM acetyl-CoA
  Km: 444 ± 44.4 µM
PcIBMS1 [2]; 1 mM acetyl-CoA
  Km: 1300 ± 128 µM
PcIPMS1 [3]; 1 mM acetyl-CoA
  Km: 288 ± 8.2 µM
PcIPMS1 [4]; 1 mM acetyl-CoA
  Km: 622 ± 58.3 µM

## CC(C)CC(=O)C(=O)O [4-methyl-2-oxovalerate]
PcIBMS1 [1]; 1 mM acetyl-CoA
  Km: 95 ± 17.9 µM
PcIBMS1 [2]; 1 mM acetyl-CoA
  Km: 140 ± 39.4 µM

## CC(=O)SCCNC(=O)CCNC(=O)[C@H](O)C(C)(C)COP(=O)(O)OP(=O)(O)OC[C@H]1O[C@@H](n2cnc3c(N)ncnc32)[C@H](O)[C@@H]1OP(=O)(O)O [acetyl-CoA]
PcIBMS1 [1]; 2 mM 4-methyl-2-oxovalerate
  Km: 132 ± 6.5 µM
PcIBMS1 [2]; 2 mM 4-methyl-2-oxovalerate
  Km: 145 ± 21.2 µM
PcIPMS1 [3]; 2 mM 2-oxoisovalerate
  Km: 48.1 ± 2.8 µM
PcIPMS1 [4]; 2 mM 2-oxoisovalerate
  Km: 22.7 ± 1.9 µM
